# Molecular target: T1, thioredoxin reductase 1 (TrxR1, cytosolic) (Rattus norvegicus, UniProt O89049)
# T1 construct: gene Txnrd1; highly purified enzyme from rat liver
# T1 sequence (O89049 1-499): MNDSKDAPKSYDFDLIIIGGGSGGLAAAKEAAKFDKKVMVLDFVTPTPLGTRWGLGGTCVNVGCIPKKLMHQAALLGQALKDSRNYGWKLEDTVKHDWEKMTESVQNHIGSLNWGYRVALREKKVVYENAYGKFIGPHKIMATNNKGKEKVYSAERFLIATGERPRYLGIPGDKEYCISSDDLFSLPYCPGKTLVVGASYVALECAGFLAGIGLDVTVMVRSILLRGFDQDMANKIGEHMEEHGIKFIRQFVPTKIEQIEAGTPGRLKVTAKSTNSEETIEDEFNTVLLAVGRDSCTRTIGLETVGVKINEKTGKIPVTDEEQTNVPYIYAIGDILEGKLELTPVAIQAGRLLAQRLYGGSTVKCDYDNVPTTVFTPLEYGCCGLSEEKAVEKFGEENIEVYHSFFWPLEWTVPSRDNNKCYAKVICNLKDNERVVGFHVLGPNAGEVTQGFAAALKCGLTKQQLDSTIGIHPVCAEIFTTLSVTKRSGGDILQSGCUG
# Test: DTNB reduction assay on purified rat liver TrxR1; BIAM labelling of Sec/Cys residues
# Format: biochemical
compound,measurement,value
CCC(=C(c1ccc(OC)cc1)c1ccc(OC)cc1)c1cc[n+]2c(c1)-c1cccc[n+]1[Au-]2([Cl])[Cl].F[P-](F)(F)(F)(F)F [AuTAML],DTNB reduction assay on purified rat liver TrxR1; BIAM labelling of Sec/Cys resi,a strong inhibition of TrxR1 activity was observed at low nanomolar concentrations of the Au(III) complex
